Consider seven molecules from ChEMBL document CHEMBL1649214, “Antimalarial activity of tigecycline, a novel glycylcycline antibiotic” (Antimicrob Agents Chemother, 2009).

In assay [1] the test system is Plasmodium falciparum. Put plainly: Antimalarial activity against Plasmodium falciparum isolates assessed as parasite growth inhibition after 72 hrs by ELISA based histidine-rich protein 2 in vitro drug susceptibility assay. Type of assay: functional, organism-based.
The test system of assay [2] is Plasmodium falciparum. Put plainly: Ratio of IC50 for Plasmodium falciparum isolates after 72 hrs to IC50 for Plasmodium falciparum isolates after 24 hrs by ELISA based histidine-rich protein 2 in vitro drug susceptibility assay. Type of assay: functional.

For the molecule `C[C@H]1[C@@H](O)O[C@@H]2O[C@@]3(C)CC[C@H]4[C@H](C)CC[C@@H]1[C@@]24OO3` [ARTENIMOL], in the assay with Plasmodium falciparum [1], the IC50 worked out at 0.77 nM, the IC90 turned out to be 2.76 nM and the IC99 was 0.004 µM.
As to `CC[C@H]1OC(=O)[C@H](C)[C@@H](O[C@H]2C[C@@](C)(OC)[C@@H](O)[C@H](C)O2)[C@H](C)[C@@H](O[C@@H]2O[C@H](C)C[C@H](N(C)C)[C@H]2O)[C@](C)(O)C[C@@H](C)CN(C)[C@H](C)[C@@H](O)[C@]1(C)O` [AZITHROMYCIN], in the assay with Plasmodium falciparum [1], the IC50 was found to be 4310 nM, the IC90 was 18400 nM and the IC99 was determined as 26.7 µM.
Take `CCN(CC)CCCC(C)Nc1ccnc2cc(Cl)ccc12` (configuration not stated) [CHLOROQUINE]: in the assay on Plasmodium falciparum [1], the IC90 stood at 303 nM and the IC99 was found to be 0.436 µM.
With `C[C@H]1c2cccc(O)c2C(=O)C2=C(O)[C@]3(O)C(=O)C(C(N)=O)=C(O)[C@@H](N(C)C)[C@@H]3[C@@H](O)[C@@H]21.O` [DOXYCYCLINE], in the assay on Plasmodium falciparum [1], the IC50 stood at 4280 nM, the concentration for an effect of 90% (IC90) came out at 19400 nM and the IC99 stood at 27.2 µM. Besides, the “Ratio IC50” value with Plasmodium falciparum [2] came out at 13.
Consider `OC(c1cc(C(F)(F)F)nc2c(C(F)(F)F)cccc12)C1CCCCN1` (configuration not stated) [MEFLOQUINE], for which, in the assay on Plasmodium falciparum [1], the IC50 is 14.4 nM, the IC90 worked out at 64 nM and the IC99 amounted to 0.106 µM.
For `C=C[C@H]1CN2CC[C@H]1C[C@H]2[C@H](O)c1ccnc2ccc(OC)cc12` [QUININE], in that order: 106 nM, 441 nM and 0.673 µM.
As for `CN(C)c1cc(NC(=O)CNC(C)(C)C)c(O)c2c1C[C@H]1C[C@H]3[C@H](N(C)C)C(O)=C(C(N)=O)C(=O)[C@@]3(O)C(O)=C1C2=O` [TIGECYCLINE], in the assay with Plasmodium falciparum [1], the IC50 turned out to be 699 nM, the IC90 stood at 5910 nM and the IC99 stood at 12.4 µM. Further, in the assay on Plasmodium falciparum [2], the “Ratio IC50” value stood at 49.
